Measurements published in PubChem BioAssay (NCI).
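In this assay, cells in 96-well plates receive the compound at five concentrations for 48 hours. Endpoints are linearly interpolated between the surrounding concentrations. Abbreviation: GI50, concentration required for 50% inhibition of growth. TGI: total growth inhibition.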

Experiments:
Test in all cases: inhibition of tumour cell growth, NCI panel, 48 h
786-0 renal = system: 786-0 renal
A498 renal = system: A498 renal
A549 NSCLC = system: A549 NSCLC
ACHN renal = system: ACHN renal
BT-549 breast = system: BT-549 breast
CAKI-1 renal = system: CAKI-1 renal
CCRF-CEM leukemia = system: CCRF-CEM leukemia
COLO 205 colon = system: COLO 205 colon
DU-145 prostate = system: DU-145 prostate
EKVX NSCLC = system: EKVX NSCLC
HCC-2998 colon = system: HCC-2998 colon
HCT-116 colon = system: HCT-116 colon
HCT-15 colon = system: HCT-15 colon
HL-60(TB) leukemia = system: HL-60(TB) leukemia
HOP-62 NSCLC = system: HOP-62 NSCLC
HOP-92 NSCLC = system: HOP-92 NSCLC
HS 578T breast = system: HS 578T breast
HT29 colon = system: HT29 colon
IGROV1 ovarian = system: IGROV1 ovarian
K-562 leukemia = system: K-562 leukemia
KM12 colon = system: KM12 colon
LOX IMVI melanoma = system: LOX IMVI melanoma
M14 melanoma = system: M14 melanoma
MALME-3M melanoma = system: MALME-3M melanoma
MCF7 breast = system: MCF7 breast
MDA-MB-231 breast = system: MDA-MB-231 breast
MDA-MB-435 = system: MDA-MB-435
MDA-MB-468 breast = system: MDA-MB-468 breast
MOLT-4 leukemia = system: MOLT-4 leukemia
NCI-H226 lung = system: NCI-H226 lung

C#CCN(C)CCCOc1ccc(N(CC)C(=O)c2cc(C(C)C)c(O)cc2O)cc1Cl gave a GI50 (786-0 renal) of 1.37 µM, a TGI (786-0 renal) of 17.4 µM and a GI50 (A498 renal) of 0.679 µM. For the same molecule, the TGI (A498 renal) was 15.5 µM, the GI50 (A549 NSCLC) was 0.146 µM and the TGI (A549 NSCLC) was 15 µM. It also gave a GI50 (ACHN renal) of 0.105 µM, a TGI (ACHN renal) of 12.7 µM and a GI50 (BT-549 breast) of 1.75 µM. It also gave a TGI (BT-549 breast) of 14.3 µM, a GI50 (CAKI-1 renal) of 0.35 µM and a TGI (CAKI-1 renal) of 14.6 µM. It also gave a GI50 (CCRF-CEM leukemia) of 0.0857 µM, a TGI (CCRF-CEM leukemia) of 13.3 µM and a GI50 (COLO 205 colon) of 3.08 µM. The TGI (COLO 205 colon) was 13.4 µM, the GI50 (DU-145 prostate) was 0.0595 µM and the TGI (DU-145 prostate) was 15.3 µM. The GI50 (EKVX NSCLC) was 0.484 µM, the TGI (EKVX NSCLC) was 8.53 µM and the GI50 (HCC-2998 colon) was 0.273 µM. For the same molecule, the TGI (HCC-2998 colon) was 1.91 µM, the GI50 (HCT-116 colon) was 0.138 µM and the TGI (HCT-116 colon) was 13.3 µM. For the same molecule, the GI50 (HCT-15 colon) was 0.0948 µM, the TGI (HCT-15 colon) was 12.2 µM and the GI50 (HL-60(TB) leukemia) was 0.073 µM. For the same molecule, the TGI (HL-60(TB) leukemia) was 2.72 µM, the GI50 (HOP-62 NSCLC) was 0.4 µM and the TGI (HOP-62 NSCLC) was 19 µM. For the same molecule, the GI50 (HOP-92 NSCLC) was 0.446 µM, the TGI (HOP-92 NSCLC) was 2.7 µM and the GI50 (HS 578T breast) was 1.56 µM. The TGI (HS 578T breast) was 21.1 µM, the GI50 (HT29 colon) was 2.97 µM and the TGI (HT29 colon) was 13.1 µM. For the same molecule, the GI50 (IGROV1 ovarian) was 0.193 µM, the TGI (IGROV1 ovarian) was 13.6 µM and the GI50 (K-562 leukemia) was 0.0914 µM. The TGI (K-562 leukemia) was 23 µM, the GI50 (KM12 colon) was 0.111 µM and the TGI (KM12 colon) was 10.5 µM. For the same molecule, the GI50 (LOX IMVI melanoma) was 0.139 µM, the TGI (LOX IMVI melanoma) was 0.359 µM and the GI50 (M14 melanoma) was 0.462 µM. It also gave a TGI (M14 melanoma) of 13 µM, a GI50 (MALME-3M melanoma) of 0.207 µM and a TGI (MALME-3M melanoma) of 1.58 µM. It also gave a GI50 (MCF7 breast) of 0.0561 µM, a TGI (MCF7 breast) of 13.7 µM and a GI50 (MDA-MB-231 breast) of 0.23 µM. It also gave a TGI (MDA-MB-231 breast) of 2.75 µM, a GI50 (MDA-MB-435) of 0.174 µM and a TGI (MDA-MB-435) of 12 µM. For the same molecule, the GI50 (MDA-MB-468 breast) was 0.115 µM, the TGI (MDA-MB-468 breast) was 0.462 µM and the GI50 (MOLT-4 leukemia) was 0.139 µM. The TGI (MOLT-4 leukemia) was 13.2 µM and the GI50 (NCI-H226 lung) was 0.604 µM.
